Measurements taken from patent US9358226B2, “Triarylmethane analogs and their use in treating cancers” (Emory University, priority 2007, dated 2016).

Tests used:
[1] = system: P. falciparum D6 (Chloroquine Sensitive); assay: Malaria model, chloroquine sensitive P. falciparum; assay type: cell-based; details: Plasmodium falciparum, D6; read-out: IC50 (nM) vs P. falciparum D6 (Chloroquine Sensitive)
Description: The compounds were tested in a malaria model using both chloroquine sensitive and multidrug resistant P. falciparum. The malaria model was the same as published in JAC Advance Access published online on Jul. 30, 2008, Journal of Antimicrobial Chemotherapy, doi:10.1093/jac/dkn315, the contents of which are hereby incorporated by reference, and the data is summarized in the table below.
Briefly, the assay involves exposing both chloroquine sensitive and multidrug resistant P. falciparum to the compounds. After one hour of exposure to the highest concentration of the compound, followed by removal of the compound, the growth of all stages of P. falciparum was observed. The reduction in the growth stages was then compared with untreated control parasites. […] The presence of strong inhibition (defined herein as 10% growth) of all parasite stages was evaluated when the parasites were exposed to various concentrations of various compounds.

ang-2 mRNA = assay: Quantitative reverse transcription-PCR for ang-2 in bEnd.3 cells; assay type: cell-based, murine; details: 6.5 hours
Description: bEnd.3 cells were seeded equally into six T-75 flasks and 24 hours later were treated with 0, 1, 5, 10, 15, and 20 μM concentrations of gentian violet (Sigma-Aldrich, no. G2039) in ethanol for 6.5 hours. RNA was extracted and purified using TRI reagent (Sigma-Aldrich, T9424) and measured using spectrophotometer (Perkin-Elmer UV/VIS, Wellesley, Mass.). RNA (1 μg) was used for DNase Amplification (Invitrogen, no. 18068-015, Carlsbad, Calif.) followed by first-strand synthesis for reverse transcription-PCR (Invitrogen SuperScript, no. 12371-019). 96-well Optical Reaction Plate (ABI PRISM, no. 128, Applied Biosystems, Foster City, Calif.) was used for the reverse transcription-PCR reaction. A measure of 2.5 μl of template, which had been diluted 1:10 in crosslinked water, was used in each well and the experiment was performed in triplicate. Ang pt2 (Applied Biosystems, Taqman Gene Expression Assay, Mm00545822_ml) and 18S (Applied Biosystems Taqman Gene Expression Assay, Hs99999901_sl) primers were used along with crosslinked molecular grade water (Cellgro, Mediatech, Inc., Herndon, Va.) and master mix (Applied Biosystems TaqMan Fast Universal PCR Master Mix (2^x)). The reaction was run on the 7900 Applied Biosystems Reader for Absolute Quantification for 96-well plates. C values were analyzed by ΔΔCt method, and the standard error of the mean was calculated (FIG. 3b). The same protocol was used for treatment with brilliant green (Sigma, no. B6756), except that the concentrations used were 0, 0.1, 0.25, 0.5, and 0.75 μM (FIG. 3a).

[2] = system: bloodstream form of T. brucei; assay: Bloodstream form of T. brucei, live cells, overnight treatment; assay type: cell-based
Description: These and other compounds were tested on live cells.
The experiment was conducted with one million cells of the bloodstream form of T. brucei. After over night treatment with different compounds (at concentrations of 50 and 100 μmolar), cells were counted and plotted with controls.

bEnd.3 hemangiomas = assay: bEnd.3 hemangioma in vivo, intralesional treatment
Description: In order to determine if compounds that inhibit ang-2 formation in vitro would ameliorate hemangioma formation in vivo, we injected one million bEnd.3 cells subcutaneously into nine nude mice.
For each treatment condition, three mice were injected with 1,000,000 bEnd.3 cells and received intralesional injection with either vehicle control, brilliant green or gentian viol et (from left to right in photo) on days 9 and 14. Animals were euthanized on day 20, secondary to tumor burden in the control animals.
For each treatment condition, three mice were subcutaneously injected with one million bEnd.3 cells and monitored for tumor development. On day 9, tumors were measured in all nine animals, and there was no significant difference in tumor volume before the initiation of treatment. Each mouse then received intralesional injection with either 0.33 ml vehicle control, brilliant green (5 mg/kg, dissolved in […] ethanol and 900 μl intralipid) or gentian violet (5 mg/kg, dissolved in 100 μl ethanol and 900 μl intralipid) on days 9 and 14. No toxicity was noted following injection. Animals were euthanized on day 20, secondary to tumor burden in the control animals. Photos represent average tumor burden in each of the three groups (FIG. 3a), and tumor volume (mm^3) is graphically depicted (FIG. 3b). Error bars represent the standard error of the mean.

Structure (SMILES): CN(C)c1ccc(C(=C2C=CC(=[N+](C)C)C=C2)c2ccc(N(C)C)cc2)cc1 [Gentian Violet (GV), hexamethyl pararosaniline chloride]
- IC50 [1]: 12.1 nM
- ang2 expression compared to control (ang-2 mRNA; 1 and 5 μM): increased
- inhibition of ang-2 mRNA (ang-2 mRNA; higher concentrations (above 5 μM, up to 20 μM)): 70-90%
- IC50 ([2]; Trypanosoma brucei, bloodstream form of T. brucei): < 0.02 µM
- cell survival after over night treatment ([2]; one million cells, 50 and 100 μmolar): All cells died
- decrease in tumor size compared to control (bEnd.3 hemangiomas; 5 mg/kg intralesional on days 9 and 14, euthanized day 20): 92.6%
- toxicity as a result of treatment (bEnd.3 hemangiomas; mouse, in vivo, 5 mg/kg): Neither local nor systemic toxicity was observed
